Data as given in US8916599B2, “1H-benz imidazole-5-carboxamides as anti-inflammatory agents” (Orexo AB, priority 2008, dated 2014).

Molecular target: T1, recombinant human mPGES-1 (Homo sapiens, UniProt O14684)
T1 construct: made in house; host or cells: Rosetta E. coli (microsomal/membrane fraction)
T1 sequence (O14684 1-152): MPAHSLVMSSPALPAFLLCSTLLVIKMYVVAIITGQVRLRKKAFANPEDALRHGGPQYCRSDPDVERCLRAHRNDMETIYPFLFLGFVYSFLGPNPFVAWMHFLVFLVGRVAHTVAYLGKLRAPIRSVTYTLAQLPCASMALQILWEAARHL
Experiment: mPGES-1 inhibition test (microsomes, PGH2 substrate, HTRF detection of PGE2)
Assay type: biochemical
Conditions: inhibition of mPGES-1 at 10 μM
Outline: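 First, inhibitor is incubated with microsomal enzyme from Rosetta E. coli in KPi pH 7.4 containing 2.5 mM GSH for 25 minutes at room temperature. Next, PGH2 is added and stopped after one minute with FeCl2 stop solution. Finally, diluted samples undergo HTRF PGE2 quantification.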

How did the inhibition at 10 µM turn out when `CO[C@H]1CC[C@H](NC(=O)c2ccc3c(c2)nc(Nc2c(Cl)cccc2Cl)n3C)CC1` [Example 240, 2-(2,6-Dichloro-phenylamino)-1-methyl-1H-benzimidazole-5-carboxylic acid (trans-4-methoxy-cyclohexyl)-amide] was run?
Its inhibition at 10 µM is 80%.

`CC1CC(NC(=O)c2ccc3c(c2)nc(Nc2c(Cl)cccc2Cl)n3C)CC(C)(C)C1` (centres unmarked) [Example 241, 2-(2,6-Dichloro-phenylamino)-1-methyl-1H-benzimidazole-5-carboxylic acid (3,3,5-trimethyl-cyclohexyl)-amide] was tested. Which inhibition at 10 µM did it give?
Its inhibition at 10 µM is 100%.

`CC(NC(=O)c1ccc2c(c1)nc(Nc1c(Cl)cccc1Cl)n2C)c1ccccn1` (centres unmarked) [Example 242] was tested. Which inhibition at 10 µM did it give?
Its inhibition at 10 µM is 70%.

How did the inhibition at 10 µM turn out when `Cn1c(Nc2c(Cl)cccc2Cl)nc2cc(C(=O)NCC3CCCC3)ccc21` [Example 243, 2-(2,6-Dichloro-phenylamino)-1-methyl-1H-benzimidazole-5-carboxylic acid cyclopentylmethyl-amide] was run?
Its inhibition at 10 µM is 93%.

Which inhibition at 10 µM does the source give for `Cn1c(Nc2c(Cl)cccc2Cl)nc2cc(C(=O)NCc3ncccc3C(F)(F)F)ccc21` [Example 244, 2-(2,6-Dichloro-phenylamino)-1-methyl-1H-benzimidazole-5-carboxylic acid (3-trifluoromethyl-pyridin-2-ylmethyl)-amide] here?
Its inhibition at 10 µM is 96%.

With `Cn1c(Nc2c(Cl)cccc2Cl)nc2cc(C(=O)NCc3cc(C(F)(F)F)ccn3)ccc21` [Example 245, 2-(2,6-Dichloro-phenylamino)-1-methyl-1H-benzimidazole-5-carboxylic acid (4-trifluoromethyl-pyridin-2-ylmethyl)-amide] as the compound, how does the inhibition at 10 µM read?
The inhibition at 10 µM was 97%.

For `Cn1c(Nc2c(Cl)cccc2Cl)nc2cc(C(=O)NCc3ccc(C(F)(F)F)cn3)ccc21` [Example 246, 2-(2,6-Dichloro-phenylamino)-1-methyl-1H-benzimidazole-5-carboxylic acid (5-trifluoromethyl-pyridin-2-ylmethyl)-amide], which inhibition at 10 µM is on record?
Its inhibition at 10 µM is 100%.

How did the inhibition at 10 µM turn out when `Cn1c(Nc2c(Cl)cccc2Cl)nc2cc(C(=O)NCc3cccc(C(F)(F)F)n3)ccc21` [Example 247, 2-(2,6-Dichloro-phenylamino)-1-methyl-1H-benzimidazole-5-carboxylic acid (6-trifluoromethyl-pyridin-2-ylmethyl)-amide] was run?
Its inhibition at 10 µM is 92%.

Which inhibition at 10 µM does the source give for `Cn1c(Nc2c(Cl)cccc2Cl)nc2cc(C(=O)Nc3cccc(S(C)(=O)=O)c3)ccc21` [Example 248, 2-(2,6-Dichloro-phenylamino)-1-methyl-1H-benzimidazole-5-carboxylic acid (3-methanesulfonyl-phenyl)-amide] here?
The inhibition at 10 µM was 73%.

With `Cn1c(Nc2c(Cl)cccc2Cl)nc2cc(C(=O)NC3CCC(F)(F)CC3)ccc21` [Example 249, 2-(2,6-Dichloro-phenylamino)-1-methyl-1H-benzimidazole-5-carboxylic acid (4,4-difluoro-cyclohexyl)-amide] as the compound, how does the inhibition at 10 µM read?
The inhibition at 10 µM was 96%.

How did the inhibition at 10 µM turn out when `Cn1c(Nc2c(Cl)cccc2Cl)nc2cc(C(=O)Nc3ccc(S(C)(=O)=O)cc3)ccc21` [Example 250, 2-(2,6-Dichloro-phenylamino)-1-methyl-1H-benzimidazole-5-carboxylic acid (4-methanesulfonyl-phenyl)-amide] was run?
The inhibition at 10 µM was 73%.

For `Cn1c(Nc2c(Cl)cccc2Cl)nc2cc(C(=O)NCC3CCCOC3)ccc21` (centres unmarked) [Example 251, 2-(2,6-Dichloro-phenylamino)-1-methyl-1H-benzimidazole-5-carboxylic acid (tetrahydro-pyran-3-ylmethyl)-amide], which inhibition at 10 µM is on record?
Its inhibition at 10 µM is 71%.

With `Cn1c(Nc2c(Cl)cccc2Cl)nc2cc(C(=O)NC3CCOCC3)ccc21` [Example 252, 2-(2,6-Dichloro-phenylamino)-1-methyl-1H-benzimidazole-5-carboxylic acid (tetrahydro-pyran-4-yl)-amide] as the compound, how does the inhibition at 10 µM read?
The inhibition at 10 µM was 68%.

Which inhibition at 10 µM does the source give for `Cn1c(Nc2c(Cl)cccc2Cl)nc2cc(C(=O)NC3(C)CCCCC3)ccc21` [Example 253, 2-(2,6-Dichloro-phenylamino)-1-methyl-1H-benzimidazole-5-carboxylic acid (1-methyl-cyclohexyl)-amide] here?
Its inhibition at 10 µM is 100%.

For `Cn1c(Nc2c(Cl)cccc2Cl)nc2cc(C(=O)NC3CCCCC3C(F)(F)F)ccc21` (centres unmarked) [Example 254, 2-(2,6-Dichloro-phenylamino)-1-methyl-1H-benzimidazole-5-carboxylic acid (2-trifluoromethyl-cyclohexyl)-amide], which inhibition at 10 µM is on record?
The inhibition at 10 µM was 100%.

Which inhibition at 10 µM does the source give for `Cn1c(Nc2c(Cl)cccc2Cl)nc2cc(C(=O)NC3CCCC(C(F)(F)F)C3)ccc21` (centres unmarked) [Example 255, 2-(2,6-Dichloro-phenylamino)-1-methyl-1H-benzimidazole-5-carboxylic acid (3-trifluoromethyl-cyclohexyl)-amide] here?
The inhibition at 10 µM was 100%.

`Cn1c(Nc2c(Cl)cccc2Cl)nc2cc(C(=O)NC3CCC(C(F)(F)F)CC3)ccc21` (centres unmarked) [Example 256, 2-(2,6-Dichloro-phenylamino)-1-methyl-1H-benzimidazole-5-carboxylic acid (4-trifluoromethyl-cyclohexyl)-amide] was tested. Which inhibition at 10 µM did it give?
The inhibition at 10 µM was 100%.

Which inhibition at 10 µM does the source give for `Cn1c(Nc2c(Cl)cccc2Cl)nc2cc(C(=O)NC3(C#N)CCCCC3)ccc21` [Example 257, 2-(2,6-Dichloro-phenylamino)-1-methyl-1H-benzimidazole-5-carboxylic acid (1-cyano-cyclohexyl)-amide] here?
The inhibition at 10 µM was 100%.

For `Cn1c(Nc2c(Cl)cccc2Cl)nc2cc(C(=O)NCCc3ccccn3)ccc21` [Example 258, 2-(2,6-Dichloro-phenylamino)-1-methyl-1H-benzimidazole-5-carboxylic acid (2-pyridin-2-yl-ethyl)-amide], which inhibition at 10 µM is on record?
The inhibition at 10 µM was 83%.

How did the inhibition at 10 µM turn out when `Cn1c(Nc2c(Cl)cccc2Cl)nc2cc(C(=O)NCCc3cccnc3)ccc21` [Example 259, 2-(2,6-Dichloro-phenylamino)-1-methyl-1H-benzimidazole-5-carboxylic acid (2-pyridin-3-yl-ethyl)-amide] was run?
Its inhibition at 10 µM is 89%.

For `Cn1c(Nc2c(Cl)cccc2Cl)nc2cc(C(=O)NCCc3ccncc3)ccc21` [Example 260, 2-(2,6-Dichloro-phenylamino)-1-methyl-1H-benzimidazole-5-carboxylic acid (2-pyridin-4-yl-ethyl)-amide], which inhibition at 10 µM is on record?
Its inhibition at 10 µM is 84%.

Which inhibition at 10 µM does the source give for `Cn1c(Nc2c(Cl)cccc2Cl)nc2cc(C(=O)NCC3CCCO3)ccc21` (centres unmarked) [Example 261, 2-(2,6-Dichloro-phenylamino)-1-methyl-1H-benzimidazole-5-carboxylic acid (tetrahydro-furan-2-ylmethyl)-amide] here?
The inhibition at 10 µM was 92%.

Which inhibition at 10 µM does the source give for `Cn1c(Nc2c(Cl)cccc2Cl)nc2cc(C(=O)NCc3ccncc3)ccc21` [Example 262, 2-(2,6-Dichloro-phenylamino)-1-methyl-1H-benzimidazole-5-carboxylic acid (2-pyridin-4-yl-methyl)-amide] here?
The inhibition at 10 µM was 61%.

How did the inhibition at 10 µM turn out when `O=C(Nc1cc(Cl)ccn1)c1ccc2c(c1)nc(Nc1c(Cl)cccc1Cl)n2CCCO` [Example 263, 2-(2,6-Dichloro-phenylamino)-1-(3-hydroxy-propyl)-1H-benzimidazole-5-carboxylic acid (4-chloro-pyridin-2-yl)-amide] was run?
The inhibition at 10 µM was 93%.

How did the inhibition at 10 µM turn out when `O=C(Nc1cc(Cl)ccn1)c1ccc2c(c1)nc(Nc1c(Cl)cccc1Cl)n2CCC(=O)N1CCOCC1` [Example 264, 2-(2,6-Dichloro-phenylamino)-1-(3-morpholin-4-yl-3-oxo-propyl)-1H-benzimidazole-5-carboxylic acid (4-chloro-pyridin-2-yl)-amide] was run?
The inhibition at 10 µM was 90%.

For `O=C(O)CCn1c(Nc2c(Cl)cccc2Cl)nc2cc(C(=O)Nc3cc(Cl)ccn3)ccc21` [Example 265, 2-(2,6-Dichloro-phenylamino)-1-(propionic acid)-1H-benzimidazole-5-carboxylic acid (4-chloro-pyridin-2-yl)-amide], which inhibition at 10 µM is on record?
The inhibition at 10 µM was 97%.

`CNCCCn1c(Nc2c(Cl)cccc2Cl)nc2cc(C(=O)Nc3cc(Cl)ccn3)ccc21` [Example 266, 2-(2,6-Dichloro-phenylamino)-1-(3-methylamino-propyl)-1H-benzimidazole-5-carboxylic acid (4-chloro-pyridin-2-yl)-amide] was tested. Which inhibition at 10 µM did it give?
The inhibition at 10 µM was 100%.

For `O=C(Nc1cc(Cl)ccn1)c1ccc2c(c1)nc(Nc1c(Cl)cccc1Cl)n2CCN1CCCC1=O` [Example 267, 2-(2,6-Dichloro-phenylamino)-1-[2-(2-oxo-pyrrolidin-1-yl)-ethyl]-1H-benzimidazole-5-carboxylic acid (4-chloro-pyridin-2-yl)-amide], which inhibition at 10 µM is on record?
Its inhibition at 10 µM is 94%.

`CC(=O)NCCCn1c(Nc2c(Cl)cccc2Cl)nc2cc(C(=O)Nc3cc(Cl)ccn3)ccc21` [Example 268, 2-(2,6-Dichloro-phenylamino)-1-(3-acetylamino-propyl)-1H-benzimidazole-5-carboxylic acid (4-chloro-pyridin-2-yl)-amide] was tested. Which inhibition at 10 µM did it give?
The inhibition at 10 µM was 94%.

Which inhibition at 10 µM does the source give for `CS(=O)(=O)CCn1c(Nc2c(Cl)cccc2Cl)nc2cc(C(=O)Nc3cc(Cl)ccn3)ccc21` [Example 269, 2-(2,6-Dichloro-phenylamino)-1-(2-methanesulfonyl-ethyl)-1H-benzimidazole-5-carboxylic acid (4-chloro-pyridin-2-yl)-amide] here?
Its inhibition at 10 µM is 85%.

With `N[C@H]1C[C@H](n2c(Nc3c(Cl)cccc3Cl)nc3cc(C(=O)Nc4cc(Cl)ccn4)ccc32)C1` [Example 270, 2-(2,6-Dichloro-phenylamino)-1-(trans-3-amino-cyclobutyl)-1H-benzimidazole-5-carboxylic acid (4-chloro-pyridin-2-yl)-amide] as the compound, how does the inhibition at 10 µM read?
The inhibition at 10 µM was 96%.

Which inhibition at 10 µM does the source give for `O=C(Nc1cc(Cl)ccn1)c1ccc2c(c1)nc(Nc1c(Cl)cccc1Cl)n2CCO` [Example 271, 2-(2,6-Dichloro-phenylamino)-1-(2-hydroxy-ethyl)-1H-benzimidazole-5-carboxylic acid (4-chloro-pyridin-2-yl)-amide] here?
The inhibition at 10 µM was 98%.
